By EC50 is commonly meant the concentration at which the effect is half-maximal.

Experiment [1] deals with hemolysin alpha from Staphylococcus aureus (Staphylococcus aureus, UniProt P09616). In words: cell-based.
Experiment [2] addresses S. aureus Alpha hemolysin (Staphylococcus aureus, UniProt P09616). Put plainly: cell-based. The conditions noted are these: A549-LDH Assay activity.

Chain of hemolysin alpha from Staphylococcus aureus (P09616 27-319 limits assumed): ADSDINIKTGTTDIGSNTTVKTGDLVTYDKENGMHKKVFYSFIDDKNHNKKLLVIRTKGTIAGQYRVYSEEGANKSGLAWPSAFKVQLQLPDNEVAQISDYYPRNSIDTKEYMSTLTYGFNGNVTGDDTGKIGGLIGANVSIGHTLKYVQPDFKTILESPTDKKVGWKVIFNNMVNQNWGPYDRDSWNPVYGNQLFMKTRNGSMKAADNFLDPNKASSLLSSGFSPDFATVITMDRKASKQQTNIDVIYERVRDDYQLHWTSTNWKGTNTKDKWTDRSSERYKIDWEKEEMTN
Chain of S. aureus Alpha hemolysin (P09616 27-319 limits assumed): as above

For the compound `Cc1cc2[nH]c(=O)c(=O)[nH]c2cc1S(=O)(=O)Nc1ccc(-c2cccc(Br)c2)c(Cl)c1` [Compound 310, N-[4-(3-bromophenyl)-3-chloro-phenyl]-7-methyl-2,3-dioxo-1,4-dihydroquinoxaline-6-sulfonamide], the EC50 is less than 30 nM in experiment [1] and 100 to 1000 nM in experiment [2].

As for `Cc1cc2[nH]c(=O)c(=O)[nH]c2cc1S(=O)(=O)Nc1ccc(-c2cccc(N)c2)c(Cl)c1` [Compound 311, N-(3′-amino-2-chloro-[1,1′-biphenyl]-4-yl)-7-methyl-2,3-dioxo-1,2,3,4-tetrahydroquinoxaline-6-sulfonamide], the EC50 in experiment [1] is 30 to 100 nM; in experiment [2], less than 30 nM.

As to `Cc1cc2[nH]c(=O)c(=O)[nH]c2cc1S(=O)(=O)Nc1ccc(-c2cccc(P(C)(C)=O)c2)c(Cl)c1` [Compound 312, N-[3-chloro-4-(3-dimethylphosphorylphenyl)phenyl]-7-methyl-2,3-dioxo-1,4-dihydroquinoxaline-6-sulfonamide], the EC50 in experiment [1] and in experiment [2] was 100 to 1000 nM in each case.

With `Cc1cc2[nH]c(=O)c(=O)[nH]c2cc1S(=O)(=O)Nc1ccc(-c2cccc(S(C)(=O)=O)c2)c(Cl)c1` [Compound 313, N-[3-chloro-4-(3-methylsulfonylphenyl)phenyl]-7-methyl-2,3-dioxo-1,4-dihydroquinoxaline-6-sulfonamide], the EC50 in experiment [1] and in experiment [2] was 100 to 1000 nM each time.

Turning to `Cc1cc2[nH]c(=O)c(=O)[nH]c2cc1S(=O)(=O)Nc1ccc(-c2ccc(C(N)=O)cc2)c(Cl)c1` [Compound 314, 4-[2-chloro-4-[(7-methyl-2,3-dioxo-1,4-dihydroquinoxalin-6-yl)sulfonylamino]phenyl]benzamide], the EC50 in experiment [1] and in experiment [2] was 100 to 1000 nM each time.

Take `Cc1cc2[nH]c(=O)c(=O)[nH]c2cc1S(=O)(=O)Nc1ccc(-c2cc(Cl)cc(Cl)c2)c(Cl)c1` [Compound 315, N-[3-chloro-4-(3,5-dichlorophenyl)phenyl]-7-methyl-2,3-dioxo-1,4-dihydroquinoxaline-6-sulfonamide]: the half-maximal effective concentration (EC50) fell in the range of 100 to 1000 nM in experiment [1] and 1000 to 6000 nM in experiment [2].

`Cc1cc2[nH]c(=O)c(=O)[nH]c2cc1S(=O)(=O)Nc1ccc(-c2cccc(C(F)(F)F)c2)c(Cl)c1` [Compound 316, N-[3-chloro-4-[3-(trifluoromethyl)phenyl]phenyl]-7-methyl-2,3-dioxo-1,4-dihydroquinoxaline-6-sulfonamide]: the EC50 in experiment [1] lay within 30 to 100 nM; in experiment [2], 1000 to 6000 nM.

In the case of `Cc1cc2[nH]c(=O)c(=O)[nH]c2cc1S(=O)(=O)Nc1ccc(-c2ccc(C(F)(F)F)cc2)c(Cl)c1` [Compound 317, N-[3-chloro-4-[4-(trifluoromethyl)phenyl]phenyl]-7-methyl-2,3-dioxo-1,4-dihydroquinoxaline-6-sulfonamide], the EC50 in experiment [1] was 100 to 1000 nM; in experiment [2] it was 1000 to 6000 nM.

For `Cc1cc2[nH]c(=O)c(=O)[nH]c2cc1S(=O)(=O)Nc1ccc(-c2cccc(C#N)c2)c(Cl)c1` [Compound 318, N-[3-chloro-4-(3-cyanophenyl)phenyl]-7-methyl-2,3-dioxo-1,4-dihydroquinoxaline-6-sulfonamide], the EC50 in experiment [1] fell in the range of 30 to 100 nM; in experiment [2] it was 100 to 1000 nM.

`CCOc1ccc(-c2ccc(NS(=O)(=O)c3cc4[nH]c(=O)c(=O)[nH]c4cc3C)cc2Cl)cc1` [Compound 319, N-[3-chloro-4-(4-ethoxyphenyl)phenyl]-7-methyl-2,3-dioxo-1,4-dihydroquinoxaline-6-sulfonamide]: the EC50 was 30 to 100 nM in experiment [1] and 100 to 1000 nM in experiment [2].

As for `COc1ccc(-c2ccc(NS(=O)(=O)c3cc4[nH]c(=O)c(=O)[nH]c4cc3C)cc2Cl)cc1F` [Compound 320, N-[3-chloro-4-(3-fluoro-4-methoxy-phenyl)phenyl]-7-methyl-2,3-dioxo-1,4-dihydroquinoxaline-6-sulfonamide], the EC50 in experiment [1] and in experiment [2] was less than 30 nM each time.

With `Cc1cc2[nH]c(=O)c(=O)[nH]c2cc1S(=O)(=O)Nc1ccc(Cc2ccccc2)c(Cl)c1` [Compound 321, N-(4-benzyl-3-chloro-phenyl)-7-methyl-2,3-dioxo-1,4-dihydroquinoxaline-6-sulfonamide], the half-maximal effective concentration (EC50) in experiment [1] and in experiment [2] was 100 to 1000 nM each time.

Take `Cc1cc2[nH]c(=O)c(=O)[nH]c2cc1S(=O)(=O)Nc1ccc(OC(F)(F)F)c(Br)c1` [Compound 322, N-[3-bromo-4-(trifluoromethoxy)phenyl]-7-methyl-2,3-dioxo-1,4-dihydroquinoxaline-6-sulfonamide]: the EC50 in experiment [1] and in experiment [2] was 30 to 100 nM in each case.

For `Cc1cc(NS(=O)(=O)c2cc3[nH]c(=O)c(=O)[nH]c3cc2C)ccc1OC(F)(F)F` [Compound 323, 7-methyl-N-[3-methyl-4-(trifluoromethoxy)phenyl]-2,3-dioxo-1,4-dihydroquinoxaline-6-sulfonamide], the 50% effective concentration (EC50) in experiment [1] was 30 to 100 nM; in experiment [2] it was less than 30 nM.

As for `Cc1cc2[nH]c(=O)c(=O)[nH]c2cc1S(=O)(=O)Nc1ccc(OC(F)(F)F)c(Cl)c1` [Compound 324, N-[3-chloro-4-(trifluoromethoxy)phenyl]-7-methyl-2,3-dioxo-1,4-dihydroquinoxaline-6-sulfonamide], the EC50 in experiment [1] and in experiment [2] was 30 to 100 nM in each case.

On to `Cc1cc2[nH]c(=O)c(=O)[nH]c2cc1S(=O)(=O)Nc1ccc(I)c(C(F)(F)F)c1` [Compound 325, N-[4-iodo-3-(trifluoromethyl)phenyl]-7-methyl-2,3-dioxo-1,4-dihydroquinoxaline-6-sulfonamide], for which the EC50 is 100 to 1000 nM in experiment [1] and 1000 to 6000 nM in experiment [2].

With `Cc1cc2[nH]c(=O)c(=O)[nH]c2cc1S(=O)(=O)Nc1ccc(-c2ccc(F)cc2)c(C(F)(F)F)c1` [Compound 326, N-[4-(4-fluorophenyl)-3-(trifluoromethyl)phenyl]-7-methyl-2,3-dioxo-1,4-dihydroquinoxaline-6-sulfonamide], the concentration for a half-maximal effect (EC50) in experiment [1] is less than 30 nM; in experiment [2], 30 to 100 nM.

Consider `Cc1cc2[nH]c(=O)c(=O)[nH]c2cc1S(=O)(=O)Nc1ccc(-c2ccc(F)cc2)c(OC(F)(F)F)c1` [Compound 327, N-[4-(4-fluorophenyl)-3-(trifluoromethoxy)phenyl]-7-methyl-2,3-dioxo-1,4-dihydroquinoxaline-6-sulfonamide], for which the EC50 in experiment [1] and in experiment [2] was 100 to 1000 nM each time.

On to `Cc1cc2[nH]c(=O)c(=O)[nH]c2cc1S(=O)(=O)Nc1ccc(-c2ccc3nccn3c2)c(Cl)c1` [Compound 328, N-(3-chloro-4-imidazo[1,2-a]pyridin-6-yl-phenyl)-7-methyl-2,3-dioxo-1,4-dihydroquinoxaline-6-sulfonamide], for which the EC50 in experiment [1] and in experiment [2] was 100 to 1000 nM in each case.

With `Cc1cc2[nH]c(=O)c(=O)[nH]c2cc1S(=O)(=O)Nc1ccc(-c2ccc3c(c2)OCCN3C)c(Cl)c1` [Compound 329, N-[3-chloro-4-(4-methyl-2,3-dihydro-1,4-benzoxazin-7-yl)phenyl]-7-methyl-2,3-dioxo-1,4-dihydroquinoxaline-6-sulfonamide], the concentration giving a half-maximal response (EC50) in experiment [1] fell in the range of 100 to 1000 nM; in experiment [2], 1000 to 6000 nM.

On to `Cc1cc2[nH]c(=O)c(=O)[nH]c2cc1S(=O)(=O)Nc1ccc(-c2cccc(N3CCN(C)CC3)c2)c(Cl)c1` [Compound 330, N-[3-chloro-4-[3-(4-methylpiperazin-1-yl)phenyl]phenyl]-7-methyl-2,3-dioxo-1,4-dihydroquinoxaline-6-sulfonamide], for which the EC50 in experiment [1] and in experiment [2] was 100 to 1000 nM throughout.
